Reference: PubChem BioAssay AID248 (DTP/NCI, 2004)
“And” between values parts separate entries of the source, which are not always exact repeats. Equal entries are not always repeated. Toxic doses and inconclusive results are not listed. Rule as the data show it: active = T/C of 150% or more; inactive = T/C below 125%.

Tested on: L1210 leukemia ip in BDF1 mice, survival T/C
Assay: NCI In Vivo Anticancer Drug Screen. Data for tumor model L1210 Leukemia (intraperitoneal) in B6D2F1 (BDF1) mice
Settings: endpoint: mean survival time, higher = longer survival
Summary of the method: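 Tumor was transplanted into mice, which were then dosed with test compound or vehicle alone. Survival was recorded for each group, and the treated figure was expressed relative to the control figure.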

[1] = dose: 100.0 mg/kg/injection, schedule: Q04DX003 (ip), vehicle: Klucel (hydroxypropylcellulose) (HPC)
[2] = dose: 200.0 mg/kg/injection, schedule: Q04DX003 (ip), vehicle: Klucel (hydroxypropylcellulose) (HPC)
[3] = dose: 400.0 mg/kg/injection, schedule: Q04DX003 (ip), vehicle: Klucel (hydroxypropylcellulose) (HPC)
[4] = dose: 100.0 mg/kg/injection, schedule: Q04DX003 (ip), vehicle: saline with Tween-80
[5] = dose: 200.0 mg/kg/injection, schedule: Q04DX003 (ip), vehicle: saline with Tween-80
[6] = dose: 400.0 mg/kg/injection, schedule: Q04DX003 (ip), vehicle: saline with Tween-80
[7] = dose: 100.0 mg/kg/injection, schedule: Q01DX009 (ip), vehicle: Klucel (hydroxypropylcellulose) (HPC)
[8] = dose: 100.0 mg/kg/injection, schedule: Q01DX009 (ip), vehicle: saline with Tween-80
[9] = dose: 200.0 mg/kg/injection, schedule: Q01DX009 (ip), vehicle: Klucel (hydroxypropylcellulose) (HPC)
[10] = dose: 200.0 mg/kg/injection, schedule: Q01DX009 (ip), vehicle: saline with Tween-80
[11] = dose: 400.0 mg/kg/injection, schedule: Q01DX009 (ip), vehicle: Klucel (hydroxypropylcellulose) (HPC)
[12] = dose: 100.0 mg/kg/injection, schedule: Q04DX002 (ip), vehicle: Klucel (hydroxypropylcellulose) (HPC)
[13] = dose: 200.0 mg/kg/injection, schedule: Q04DX002 (ip), vehicle: Klucel (hydroxypropylcellulose) (HPC)
[14] = dose: 50.0 mg/kg/injection, schedule: Q01DX009 (ip), vehicle: Klucel (hydroxypropylcellulose) (HPC)
[15] = dose: 100.0 mg/kg/injection, schedule: Q01DX001 (ip), vehicle: saline with Tween-80
[16] = dose: 200.0 mg/kg/injection, schedule: Q01DX001 (ip), vehicle: saline with Tween-80
[17] = dose: 400.0 mg/kg/injection, schedule: Q04DX002 (ip), vehicle: Klucel (hydroxypropylcellulose) (HPC)

Measured: T/C

Cc1cscc(C)c1=S
inactive: dose: 6.25 mg/kg/injection, schedule: Q01DX009 (ip), vehicle: saline + alcohol 106 % of control | dose: 12.5 mg/kg/injection, schedule: Q01DX009 (ip), vehicle: saline + alcohol 105 % of control | dose: 25.0 mg/kg/injection, schedule: Q01DX009 (ip), vehicle: saline + alcohol 92 % of control

CC1(C)CCc2c(cc(OCc3ccccc3)c(-c3c(OCc4ccccc4)cc4c(c3O)CCC(C)(C)O4)c2O)O1
inactive: [1] 94 % of control | [2] 93 % of control | [3] 94 % of control

CN=C(N)C(N)=NC
inactive: [4] 104 % of control | [5] 102 % of control | [6] 95 % of control

O=C(Nc1ncc([N+](=O)[O-])s1)C(F)(F)F
inactive: dose: 50.0 mg/kg/injection, schedule: Q01DX001 (ip), vehicle: saline 97 % of control | dose: 100.0 mg/kg/injection, schedule: Q01DX001 (ip), vehicle: saline 92 % of control | dose: 200.0 mg/kg/injection, schedule: Q01DX001 (ip), vehicle: saline 90 % of control | dose: 400.0 mg/kg/injection, schedule: Q01DX001 (ip), vehicle: saline 105 % of control

CCCCNC(=O)/C=C\C(=O)O
inactive: dose: 50.0 mg/kg/injection, schedule: Q01DX009 (ip), vehicle: saline with Tween-80 95 % of control | [7] 87 % of control | [8] 97 % of control | dose: 100.0 mg/kg/injection, schedule: Q01DX009 (ip), vehicle: saline 92 % of control | [1] 100 % of control | [9] 87 % of control | [10] 95 % of control | dose: 200.0 mg/kg/injection, schedule: Q01DX009 (ip), vehicle: saline 94 % of control | [11] 100 % of control | dose: 400.0 mg/kg/injection, schedule: Q01DX009 (ip), vehicle: saline 97 % of control | [3] 87 % of control

COc1cc([N+](=O)[O-])ccc1NC(=O)Oc1cc(C)ccc1C(C)C
inactive: [7] 103 % of control | [9] 104 % of control | [11] 104 % of control

C#CCOCCCC(=C)C
inactive: dose: 25.0 mg/kg/injection, schedule: Q01DX009 (ip), vehicle: saline 109 % of control | dose: 50.0 mg/kg/injection, schedule: Q01DX009 (ip), vehicle: saline 93 % of control

COC(=O)C(c1ccccc1)c1ccccc1
inactive: dose: 100.0 mg/kg/injection, schedule: Q01DX001 (ip), vehicle: Klucel (hydroxypropylcellulose) (HPC) 97 % of control | dose: 200.0 mg/kg/injection, schedule: Q01DX001 (ip), vehicle: Klucel (hydroxypropylcellulose) (HPC) 97 % of control | dose: 400.0 mg/kg/injection, schedule: Q01DX001 (ip), vehicle: Klucel (hydroxypropylcellulose) (HPC) 104 % of control

O=C(O)CC(CO)C(c1ccccc1)c1ccccc1 (configuration not stated)
inactive: [12] 97 % of control | [13] 97 % of control

N#Cc1c(=O)[nH]c2ccccc2[n+]1[O-]
inactive: [14] 107 % of control | [7] 104 % of control

O=C1NC(c2ccccc2)(c2ccccc2)C(=O)N1CNc1ccc(Br)cc1
inactive: [1] 89 % of control | [2] 89 % of control | [3] 92 % of control

CC(C)(C)OC(=O)N/N=C/c1ccc2c(c1)CCC2
inactive: [4] 100 % of control | [5] 100 % of control | [6] 94 % of control

CCN(CC)CCN(Cc1ccccc1)C(=O)C(O)(c1ccccc1)c1ccccc1
inactive: [15] 105 % of control | [16] 108 % of control

COC1Nc2cc3ccccc3cc2-c2ccccc21 (configuration not stated)
inactive: dose: 100.0 mg/kg/injection, schedule: Q01DX001 (ip), vehicle: carboxymethylcellulose (CMC) 97 % of control | dose: 200.0 mg/kg/injection, schedule: Q01DX001 (ip), vehicle: carboxymethylcellulose (CMC) 97 % of control

Clc1ccccc1/C=N\N=C(N/N=C\c1ccccc1Cl)N/N=C/c1ccccc1Cl
inactive: dose: 15.0 mg/kg/injection, schedule: Q01DX Z (ip), vehicle: carboxymethylcellulose (CMC) 103 % of control | dose: 30.0 mg/kg/injection, schedule: Q01DX Z (ip), vehicle: carboxymethylcellulose (CMC) 97 % of control | dose: 60.0 mg/kg/injection, schedule: Q01DX Z (ip), vehicle: carboxymethylcellulose (CMC) 98 % of control | dose: 120.0 mg/kg/injection, schedule: Q01DX Z (ip), vehicle: carboxymethylcellulose (CMC) 97 % of control | dose: 150.0 mg/kg/injection, schedule: Q01DX Z (oral), vehicle: carboxymethylcellulose (CMC) 101 % of control | dose: 300.0 mg/kg/injection, schedule: Q01DX Z (oral), vehicle: carboxymethylcellulose (CMC) 101 % of control | dose: 600.0 mg/kg/injection, schedule: Q01DX Z (oral), vehicle: carboxymethylcellulose (CMC) 101 % of control | dose: 1200.0 mg/kg/injection, schedule: Q01DX Z (oral), vehicle: carboxymethylcellulose (CMC) 100 % of control

CC(=O)c1ccc(-c2ccc(C(C)=O)cc2)cc1
inactive: [12] 97 % of control | [13] 101 % of control | [17] 97 % of control

N#CCC(=O)Nc1ccccc1
inactive: [7] 95 % of control | [12] 109 % of control | [9] 103 % of control | [13] 109 % of control | [11] 114 % of control | [17] 106 % of control

COc1cc(/C=N\N=C\c2ccc(O)c(OC)c2)ccc1O
inactive: [4] 100 % of control | [5] 94 % of control | [6] 93 % of control

CCN(c1ccccc1)S(=O)(=O)C(C)S(=O)(=O)N(CC)c1ccccc1
inactive: [15] 97 % of control | [16] 94 % of control | dose: 400.0 mg/kg/injection, schedule: Q01DX001 (ip), vehicle: saline with Tween-80 103 % of control

CN(CC(=O)O)C(=O)CN=Cc1ccccc1
inactive: dose: 100.0 mg/kg/injection, schedule: Q04DX003 (ip), vehicle: saline 96 % of control | dose: 200.0 mg/kg/injection, schedule: Q04DX003 (ip), vehicle: saline 97 % of control | dose: 400.0 mg/kg/injection, schedule: Q04DX003 (ip), vehicle: saline 97 % of control

O=C(N/N=C/c1ccco1)C1CCCO1 (configuration not stated)
inactive: dose: 25.0 mg/kg/injection, schedule: Q01DX009 (ip), vehicle: Klucel (hydroxypropylcellulose) (HPC) 101 % of control | [14] 102 % of control | [7] 101 % of control and 114 % of control | [9] 106 % of control

COC(=O)c1cc(C)n(C)c(=O)c1CNS(=O)(=O)c1ccc(C)cc1
inactive: [8] 99 % of control | [4] 97 % of control | [10] 100 % of control | [5] 105 % of control | dose: 400.0 mg/kg/injection, schedule: Q01DX009 (ip), vehicle: saline with Tween-80 99 % of control | [6] 108 % of control
